These results are taken from the OPERA property sets (Mansouri et al. 2018).

≈ marks a conversion by molar mass, not a printed value.

Conditions in the first data set: not given
As to `O=C1C=CC(=C(c2ccc(O)cc2)c2ccc(O)cc2)C=C1`, the solubility (in general, the dissolved amount per volume that the medium holds) was found to be 4.13 mM (≈ 1200 µg/mL). This lies in the millimolar range.
In turn, `NC(=O)c1cc(Cl)cc(Cl)c1N` had a solubility of 8.29 mM (≈ 1700 µg/mL).
`O=C(O)c1ccc(Cl)cc1Cl` came in with a solubility of 2.5 mM (≈ 478 µg/mL). Against the preceding compound, the solubility is about 3.3-fold lower.
In turn, `CCCCOc1ccc(C(=O)OCCN(CC)CC)cc1` gave a solubility of 0.13 mM (≈ 38.1 µg/mL).
On to `Cc1cccc(Cl)c1`, for which the solubility was 0.3 mM (≈ 38 µg/mL). This solubility lies about 2.3-fold higher than the previous one.
Same read-out and setting: the figure for `CC(C)(C)NC[C@H](O)COc1ccccc1C1CCCC1` is 24 mM (≈ 7000 µg/mL).

The data set is the same for the next values; noted with them: 20 °C.
`Oc1nc(O)c2nccnc2n1` had a solubility of 7.62 mM (≈ 1250 µg/mL).
On the same count and under the same terms, the figure for `Clc1cccc(-c2ccccc2Cl)c1` is 0.0026 mM (≈ 0.58 µg/mL); for `CC(C)C1=CC2=CC[C@@H]3[C@](C)(CCC[C@@]3(C)C(=O)O)[C@H]2CC1` it is 0.16 mM (≈ 48.4 µg/mL).
Same read-out and setting: with `CCOP(=S)(OCC)OP(=S)(OCC)OCC` the figure was 0.0931 mM (≈ 30 µg/mL); with `COc1ccc2c(c1O)[C@]13CCN(C)[C@H](C2)[C@@H]1C=CC(=O)C3`, 13.4 mM (≈ 4000 µg/mL); with `CC(C)CNC(=O)N1CCNC1=O`, 7.02 mM (≈ 1300 µg/mL).
On the same count and under the same terms, the figure for `Cc1nc(NS(=O)(=O)c2ccc(N)cc2)oc1C` is 6.27 mM (≈ 1680 µg/mL); for `O=[N+]([O-])c1ccc(Cl)c(Cl)c1Cl` it is 0.115 mM (≈ 26 µg/mL).

Still in this data set, the particulars now being: 21 °C.
`O=C(O)CCCCCCCCCC(=O)O` came in with a solubility of 23.6 mM (≈ 5100 µg/mL).

The data set is the same for the next values; noted with them: 22 °C.
Compound `CCOC(=O)C(=O)C(=O)OCC` came in with a solubility of 3250 mM (≈ 566000 µg/mL).
The compound `O=C1NC(=O)C(c2ccccc2)(c2ccccc2)N1` showed a solubility of 0.127 mM (≈ 32 µg/mL).

Still in this data set, the particulars now being: 23 °C.
`Clc1ccccc1-c1cc(Cl)c(Cl)c(Cl)c1Cl` came in with a solubility of 5.17e-05 mM (≈ 0.0169 µg/mL).

Staying with this data set, now noted: 24 °C.
In turn, `O=C1CN(N=Cc2ccc([N+](=O)[O-])o2)C(=O)N1` displayed a solubility of 0.334 mM (≈ 79.5 µg/mL).
The same measure, in the same setting: the figure for `CNCCCN1c2ccccc2CCc2ccccc21` is 0.22 mM (≈ 58.6 µg/mL).

Staying with this data set, now noted: 25 °C.
In turn, `C=C(c1ccccc1)c1ccccc1` showed a solubility of 0.0366 mM (≈ 6.6 µg/mL).
Same read-out and setting: with `C#CCCCC#C` the figure was 17.5 mM (≈ 1610 µg/mL); with `C=CCC1(CC(C)C)C(=O)NC(=O)NC1=O`, 7.6 mM (≈ 1700 µg/mL).
Regarding `CN(C)[C@@H]1C(O)=C(C(N)=O)C(=O)[C@@]2(O)C(O)=C3C(=O)c4c(O)cccc4[C@@](C)(O)[C@H]3[C@H](O)[C@@H]12`, the solubility was 0.68 mM (≈ 313 µg/mL). Compared with the last compound, the solubility is about 11-fold lower.
For `CC(C)CC(C)(C)C`, the solubility was found to be 0.0196 mM (≈ 2.24 µg/mL).
`O=C(O)COc1cccc(Cl)c1Cl` gave a solubility of 1.55 mM (≈ 343 µg/mL). This solubility is about 79-fold higher than that of the compound before.
Same read-out and setting: the figure for `O=C1CCCCC1` is 255 mM (≈ 25000 µg/mL); for `C#CCCCC` it is 4.73 mM (≈ 388 µg/mL).
Still for that read-out and setting: with `O=[N+]([O-])c1ccccc1O` the figure was 18 mM (≈ 2500 µg/mL); with `CC(C)[C@@H](N)C(=O)O` (racemic), 563 mM (≈ 66000 µg/mL).
Still for that read-out and setting: with `CC(=O)OCC(=O)[C@@]1(O)CCC2C3CCC4=CC(=O)CC[C@]4(C)C3[C@@H](O)C[C@@]21C` (some centres not stated) the figure was 0.0349 mM (≈ 14.1 µg/mL); with `CC(C)(N)C(=O)O`, 1760 mM (≈ 181000 µg/mL); with `CCn1cc(C(=O)O)c(=O)c2cnc(N3CCNCC3)nc21`, 1.06 mM (≈ 322 µg/mL).
`CC(C)C(C)C` had a solubility of 0.261 mM (≈ 22.5 µg/mL).
Take `ClC1=C(Cl)[C@]2(Cl)[C@H]3[C@H]([C@@H]4C=C[C@H]3C4)[C@@]1(Cl)C2(Cl)Cl` (racemic): the solubility turned out to be 4.66e-05 mM (≈ 0.017 µg/mL).
Still for that read-out and setting: the figure for `CC/C(=C(/CC)c1ccc(O)cc1)c1ccc(O)cc1` is 0.0447 mM (≈ 12 µg/mL); for `CC(C)(C)CC(=O)OCC(=O)[C@@]1(O)CC[C@H]2[C@@H]3CCC4=CC(=O)CC[C@]4(C)[C@H]3[C@@H](O)C[C@@]21C` it is 0.00308 mM (≈ 1.42 µg/mL).
With `C=CCCCCC`, the solubility worked out at 0.185 mM (≈ 18.2 µg/mL). Compared with the last compound, the solubility is about 60-fold higher.
Still for that read-out and setting: the figure for `CC(=O)[C@@]1(O)CC[C@H]2[C@@H]3C[C@H](C)C4=CC(=O)C=C[C@]4(C)[C@@]3(F)[C@@H](O)C[C@@]21C` is 0.0797 mM (≈ 30 µg/mL); for `CCc1cccs1` it is 2.6 mM (≈ 292 µg/mL); for `CCCCCCCCN` it is 1.55 mM (≈ 200 µg/mL).

Still in this data set, the particulars now being: 28 °C.
In turn, `COc1ccc(C[C@H]2NC[C@H](O)[C@H]2OC(C)=O)cc1` returned a solubility of 24.7 mM (≈ 6550 µg/mL).

The same data set, now with this note: 30 °C.
Take `COP(=S)(OC)Oc1ccc(C#N)cc1`: the solubility came to 0.189 mM (≈ 46 µg/mL).
The compound `COP1(=S)OCc2ccccc2O1` (configuration not stated) yielded a solubility of 0.268 mM (≈ 58 µg/mL).
`COc1ccc([N+](=O)[O-])cc1` had a solubility of 3.85 mM (≈ 590 µg/mL).
The compound `CCCCCCCCCCC(=O)O` returned a solubility of 0.28 mM (≈ 52.2 µg/mL).
The same measure, in the same setting: with `CCCCC1C(=O)N(c2ccccc2)N(c2ccc(O)cc2)C1=O` (configuration not stated) the figure was 0.185 mM (≈ 60 µg/mL).
